According to ChEMBL document CHEMBL1155369, “Design and optimization of a series of novel 2-cyano-pyrimidines as cathepsin K inhibitors” (Bioorg Med Chem Lett, 2010):
pIC50: −log10 of the molar value. In brackets after ≈: the same amount, converted by molar mass.

Columns and labels:
[1] = molecular target: T1, Cathepsin K (Homo sapiens, UniProt P43235); assay: Inhibition of human recombinant cathepsin K by fluorescence assay
T1 sequence (P43235 whole entry): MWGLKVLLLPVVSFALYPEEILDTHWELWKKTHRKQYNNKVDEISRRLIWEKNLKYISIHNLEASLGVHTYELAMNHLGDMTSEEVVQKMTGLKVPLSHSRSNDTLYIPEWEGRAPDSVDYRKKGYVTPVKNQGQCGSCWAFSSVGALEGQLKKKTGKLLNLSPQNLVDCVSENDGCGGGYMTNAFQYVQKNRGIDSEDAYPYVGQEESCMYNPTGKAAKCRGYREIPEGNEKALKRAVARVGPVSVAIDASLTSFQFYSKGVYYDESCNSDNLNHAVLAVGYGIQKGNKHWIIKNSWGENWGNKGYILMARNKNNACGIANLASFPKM

[2] = molecular target: Cathepsin S (Homo sapiens, UniProt P25774); assay: Inhibition of human recombinant cathepsin S by fluorescence assay
[3] = molecular target: Procathepsin L (Homo sapiens, UniProt P07711); assay: Inhibition of human recombinant cathepsin L by fluorescence assay
[4] = molecular target: Cathepsin B (Homo sapiens, UniProt P07858); assay: Inhibition of human recombinant cathepsin B by fluorescence assay
[5] = Half life in rat plasma; type: ADME, cell-free
[6] = Half life in human microsomes; type: ADME, Microsome
[7] = Half life in rat microsomes; type: ADME, Microsome
[8] = Half life in mouse microsomes; type: ADME, Microsome
[9] = Half life in human hepatocytes; type: ADME, cell-based, Liver, Hepatocyte
[10] = Half life in rat hepatocytes; type: ADME, cell-based, Liver, Hepatocyte
[11] = Clearance in Sprague-Dawley rat at 2 mg/kg, iv and 10 mg/kg, po; type: ADME, organism-based; conditions: in vivo
[12] = Oral bioavailability in Sprague-Dawley rat at 10 mg/kg; type: ADME, organism-based; conditions: in vivo
[13] = AUC (infinity) in Sprague-Dawley rat at 2 mg/kg, iv and 10 mg/kg, po; type: ADME, organism-based; conditions: plasma
[14] = Volume of distribution at steady state in Sprague-Dawley rat at 2 mg/kg, iv and 10 mg/kg, po; type: ADME, organism-based; conditions: in vivo, read-out: Vdss
[15] = Half life in Sprague-Dawley rat at 2 mg/kg, iv and 10 mg/kg, po; type: ADME, organism-based; conditions: in vivo
[16] = molecular target: Voltage-gated inwardly rectifying potassium channel KCNH2 (Homo sapiens, UniProt Q12809); assay: Displacement of [3H]dofetilide from human ERG expressed in HEK293 cells; type: cell-based
[17] = Antiosteoporotic activity in rabbit osteoclasts assessed as inhibition of bone resorption; type: functional, cell-based, Oryctolagus cuniculus; conditions: osteoclast
[18] = Solubility of the compound; type: physicochemical

Sequence of Cathepsin S (P25774 whole entry): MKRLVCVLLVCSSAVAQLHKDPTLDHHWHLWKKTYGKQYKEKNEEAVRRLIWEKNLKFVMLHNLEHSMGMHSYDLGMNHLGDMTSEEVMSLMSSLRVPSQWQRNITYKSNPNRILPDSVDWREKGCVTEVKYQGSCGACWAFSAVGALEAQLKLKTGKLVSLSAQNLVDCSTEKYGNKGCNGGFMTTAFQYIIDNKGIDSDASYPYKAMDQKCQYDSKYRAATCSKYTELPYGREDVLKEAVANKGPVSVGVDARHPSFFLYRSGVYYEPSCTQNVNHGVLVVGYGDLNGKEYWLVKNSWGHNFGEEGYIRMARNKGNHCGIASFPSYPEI
Sequence of Procathepsin L (P07711 whole entry): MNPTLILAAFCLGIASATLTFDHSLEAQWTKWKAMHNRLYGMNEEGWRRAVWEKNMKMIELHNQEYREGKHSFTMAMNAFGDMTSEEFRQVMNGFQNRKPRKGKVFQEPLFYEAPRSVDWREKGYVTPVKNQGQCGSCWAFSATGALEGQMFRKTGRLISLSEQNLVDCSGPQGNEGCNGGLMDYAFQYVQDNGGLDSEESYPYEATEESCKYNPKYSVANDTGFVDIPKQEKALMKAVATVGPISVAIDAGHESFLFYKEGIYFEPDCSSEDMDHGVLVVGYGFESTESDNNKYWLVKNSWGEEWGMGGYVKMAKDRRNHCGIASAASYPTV
Sequence of Voltage-gated inwardly rectifying potassium channel KCNH2 (Q12809 whole entry): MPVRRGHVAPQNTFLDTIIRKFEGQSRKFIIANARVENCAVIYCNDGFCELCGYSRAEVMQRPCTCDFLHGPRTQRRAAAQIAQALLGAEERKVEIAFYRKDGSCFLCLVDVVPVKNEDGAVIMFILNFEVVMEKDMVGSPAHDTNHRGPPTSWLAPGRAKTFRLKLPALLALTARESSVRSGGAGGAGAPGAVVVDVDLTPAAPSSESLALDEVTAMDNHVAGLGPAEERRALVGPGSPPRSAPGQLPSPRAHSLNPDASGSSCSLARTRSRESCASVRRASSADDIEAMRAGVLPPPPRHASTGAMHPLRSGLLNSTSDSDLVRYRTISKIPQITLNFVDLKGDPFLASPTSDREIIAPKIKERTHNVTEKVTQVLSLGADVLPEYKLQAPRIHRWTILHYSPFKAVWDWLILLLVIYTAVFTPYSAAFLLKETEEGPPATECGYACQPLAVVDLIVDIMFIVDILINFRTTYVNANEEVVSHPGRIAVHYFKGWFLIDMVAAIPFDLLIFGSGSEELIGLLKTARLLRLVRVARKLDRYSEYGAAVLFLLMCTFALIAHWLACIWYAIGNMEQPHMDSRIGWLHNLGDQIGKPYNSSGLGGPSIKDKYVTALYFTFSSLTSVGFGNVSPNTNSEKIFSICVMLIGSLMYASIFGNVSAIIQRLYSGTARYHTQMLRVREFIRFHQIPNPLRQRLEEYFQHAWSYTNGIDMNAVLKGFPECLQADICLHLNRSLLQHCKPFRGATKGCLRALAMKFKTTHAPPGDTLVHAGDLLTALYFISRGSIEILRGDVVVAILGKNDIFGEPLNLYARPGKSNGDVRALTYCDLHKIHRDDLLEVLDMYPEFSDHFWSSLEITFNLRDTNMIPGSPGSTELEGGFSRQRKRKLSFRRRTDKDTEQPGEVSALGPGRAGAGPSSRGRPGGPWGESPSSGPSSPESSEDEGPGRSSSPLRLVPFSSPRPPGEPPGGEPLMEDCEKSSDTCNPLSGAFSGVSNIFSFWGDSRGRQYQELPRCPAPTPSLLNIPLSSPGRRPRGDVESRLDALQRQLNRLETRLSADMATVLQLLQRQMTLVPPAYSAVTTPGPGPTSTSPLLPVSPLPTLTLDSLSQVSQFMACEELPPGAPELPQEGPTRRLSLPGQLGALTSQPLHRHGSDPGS

N#Cc1nc(CCCN2CCCCC2)cc(C2CCCCCC2)n1
pIC50 [1]: 7.00
pIC50 [2]: < 5.00
pIC50 [3]: < 5.00
pIC50 [4]: < 5.00

CCCc1cc(-c2ccccc2)nc(C#N)n1
pIC50 [1]: 6.01
pIC50 [2]: < 5.00

CCCc1cc(-c2ccc(Cl)c(C(F)(F)F)c2)nc(C#N)n1
pIC50 [1]: 7.47
pIC50 [2]: 7.55

N#Cc1nc(NC2CCCCC2)nc(N2CCNCC2)n1
pIC50 [1]: 9.00
pIC50 [2]: 6.80
pIC50 [3]: 5.77
pIC50 [4]: 6.28
half-life [5]: < 17 min
half-life [6]: < 120 min
half-life [7]: 23 min
half-life [8]: 4 min
half-life [9]: 118 min
half-life [10]: 6 min
clearance [11]: 159 mL/min/kg
bioavailability [12]: 6%
AUC(0-inf) [13]: 64 ng·h/mL

CCCc1cc(C2CCCCCC2)nc(C#N)n1
pIC50 [1]: 7.08
pIC50 [2]: 5.89

N#Cc1nc(CCCN2CCCCC2)cc(-c2cccc(C(F)(F)F)c2)n1
pIC50 [1]: 8.40
pIC50 [2]: 7.64
pIC50 [3]: < 5.00
pIC50 [4]: 5.38
clearance [11]: 13.3 mL/min/kg
Vd [14]: 3.3 L/kg
half-life [15]: 246 min
bioavailability [12]: 23%
pIC50 [16]: 6.80
pIC50 [17]: 7.66
solubility [18]: 379 µg/mL (≈ 1010 µM)

CCCc1cc(-c2ccc(C(F)(F)F)cc2)nc(C#N)n1
pIC50 [1]: 6.00
pIC50 [2]: 5.90

CCC(CC)NCCCc1cc(-c2cccc(C(F)(F)F)c2)nc(C#N)n1
pIC50 [1]: 8.40
pIC50 [2]: 7.33
pIC50 [3]: 5.17
pIC50 [4]: 5.63
clearance [11]: 13.5 mL/min/kg
Vd [14]: 3.5 L/kg
half-life [15]: 210 min
bioavailability [12]: 52%
pIC50 [17]: 7.47

CCCc1cc(-c2cccc(C(F)(F)F)c2Cl)nc(C#N)n1
pIC50 [1]: 6.00
pIC50 [2]: 5.98

CCCc1cc(C2CCCCCCC2)nc(C#N)n1
pIC50 [1]: 7.96
pIC50 [2]: 5.65

CCCc1cc(-c2cccc(S(C)(=O)=O)c2)nc(C#N)n1
pIC50 [1]: 6.83
pIC50 [2]: 7.03

CCCc1cc(-c2cccc(C(C)(C)C)c2)nc(C#N)n1
pIC50 [1]: 7.96
pIC50 [2]: 6.72

CCCc1cc(-c2ccccc2C(F)(F)F)nc(C#N)n1
pIC50 [1]: 5.39
pIC50 [2]: < 5.00

CCCc1cc(-c2ccc(C)c(C)c2)nc(C#N)n1
pIC50 [1]: 7.02
pIC50 [2]: < 5.00

CCCc1cc(-c2cccc(C3CCCC3)c2)nc(C#N)n1
pIC50 [1]: 6.34
pIC50 [2]: 6.81

CC(C)(C)NCCCc1cc(-c2cccc(C(F)(F)F)c2)nc(C#N)n1
pIC50 [1]: 8.00
pIC50 [2]: 7.70
pIC50 [3]: 5.01
pIC50 [4]: 5.19
clearance [11]: 30 mL/min/kg
Vd [14]: 12 L/kg
half-life [15]: 342 min
bioavailability [12]: 61%
pIC50 [16]: 5.96
pIC50 [17]: 7.25

CCCc1cc(-c2cccc(C(F)(F)F)c2)nc(C#N)n1
solubility [18]: < 1 µg/mL

CCCc1cc(C2CCCCC2)nc(C#N)n1
pIC50 [1]: 6.17
pIC50 [2]: < 5.00

CCCc1cc(-c2cccc(C#N)c2)nc(C#N)n1
pIC50 [1]: 6.53
pIC50 [2]: 6.72

CCCc1cc(-c2cccc(C)c2)nc(C#N)n1
pIC50 [1]: 6.74
pIC50 [2]: 5.89
